Measured values: the supplement of paper PMC10307832

Key:
Assay in all cases: relative viability (nuclei count vs DMSO), 5 days (fraction); higher = more cells survive
NCI-H322M = test system: NCI-H322M
Method in brief: (§1)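 Relative viability is defined as nuclei in treated wells over nuclei in vehicle wells. Duplicate plates were run and medians reported. Lung cancer cell lines in 1536-well plates were dosed by pin tool one day after seeding, with one drug or with a fixed anchor-drug dose plus five library-drug doses (not always all listed) in √10 steps, and nuclei were counted after 5 days.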

HCC-44 = test system: HCC-44
Method in brief: as §1

NCI-H1395 = test system: NCI-H1395
Method in brief: as §1

SK-LU-1 = test system: SK-LU-1
Method in brief: as §1

NCI-H727 = test system: NCI-H727
Method in brief: as §1

BEN = test system: BEN
Method in brief: as §1

NCI-H2228 = test system: NCI-H2228
Method in brief: as §1

HOP-62 = test system: HOP-62
Method in brief: as §1

201T = test system: 201T
Method in brief: as §1

NCI-H2087 = test system: NCI-H2087
Method in brief: as §1

NCI-H647 = test system: NCI-H647
Method in brief: as §1

LXF-289 = test system: LXF-289
Method in brief: as §1

LCLC-103H = test system: LCLC-103H
Method in brief: as §1

LCLC-97TM1 = test system: LCLC-97TM1
Method in brief: as §1

NCI-H2023 = test system: NCI-H2023
Method in brief: as §1

HCC-827 = test system: HCC-827
Method in brief: as §1

NCI-H2405 = test system: NCI-H2405
Method in brief: as §1

RERF-LC-KJ = test system: RERF-LC-KJ
Method in brief: as §1

NCI-H3122 = test system: NCI-H3122
Method in brief: as §1

NCI-H1355 = test system: NCI-H1355
Method in brief: as §1

NCI-H1793 = test system: NCI-H1793
Method in brief: as §1

NCI-H1437 = test system: NCI-H1437
Method in brief: as §1

CAL-12T = test system: CAL-12T
Method in brief: as §1

Clc1ccc(Nc2nnc(Cc3ccncc3)c3ccccc23)cc1 [Vatalanib] + Cc1nc(NC(=O)N2CCC[C@H]2C(N)=O)sc1-c1ccnc(C(C)(C)C(F)(F)F)c1 [Alpelisib] (partner 2 µM)
relative viability (NCI-H322M; first compound 0.04 µM): 0.775 | relative viability (NCI-H322M; first compound 0.1265 µM): 0.709 | relative viability (NCI-H322M; first compound 0.4 µM): 0.75 | relative viability (NCI-H322M; first compound 1.265 µM): 0.782 | relative viability (NCI-H322M; first compound 4 µM): 0.795 | relative viability (HCC-44; first compound 0.04 µM): 0.803 | relative viability (HCC-44; first compound 0.1265 µM): 0.815 | relative viability (HCC-44; first compound 0.4 µM): 0.777 | relative viability (HCC-44; first compound 1.265 µM): 0.81 | relative viability (HCC-44; first compound 4 µM): 0.745 | relative viability (NCI-H1395; first compound 0.04 µM): 1.08 | relative viability (NCI-H1395; first compound 0.1265 µM): 1.04 | relative viability (NCI-H1395; first compound 0.4 µM): 1.19 | relative viability (NCI-H1395; first compound 1.265 µM): 1.08 | relative viability (NCI-H1395; first compound 4 µM): 0.971 | relative viability (SK-LU-1; first compound 0.04 µM): 1.09 | relative viability (SK-LU-1; first compound 0.1265 µM): 0.983 | relative viability (SK-LU-1; first compound 0.4 µM): 1.31 | relative viability (SK-LU-1; first compound 1.265 µM): 1.02 | relative viability (SK-LU-1; first compound 4 µM): 1.04 | relative viability (NCI-H727; first compound 0.04 µM): 0.463 | relative viability (NCI-H727; first compound 0.1265 µM): 0.528 | relative viability (NCI-H727; first compound 0.4 µM): 0.666 | relative viability (NCI-H727; first compound 1.265 µM): 0.397 | relative viability (NCI-H727; first compound 4 µM): 0.566 | relative viability (BEN; first compound 0.04 µM): 1.05 | relative viability (BEN; first compound 0.1265 µM): 0.945 | relative viability (BEN; first compound 0.4 µM): 1.09 | relative viability (BEN; first compound 1.265 µM): 1.18 | relative viability (BEN; first compound 4 µM): 1.04 | relative viability (NCI-H2228; first compound 0.04 µM): 0.691 | relative viability (NCI-H2228; first compound 0.1265 µM): 0.728 | relative viability (NCI-H2228; first compound 0.4 µM): 0.867 | relative viability (NCI-H2228; first compound 1.265 µM): 0.713 | relative viability (NCI-H2228; first compound 4 µM): 0.637 | relative viability (HOP-62; first compound 0.04 µM): 0.981 | relative viability (HOP-62; first compound 0.4 µM): 1.07 | relative viability (HOP-62; first compound 1.265 µM): 1.12 | relative viability (HOP-62; first compound 4 µM): 0.855 | relative viability (201T; first compound 0.04 µM): 0.984 | relative viability (201T; first compound 0.1265 µM): 1.03 | relative viability (201T; first compound 0.4 µM): 1.04 | relative viability (201T; first compound 1.265 µM): 1.03 | relative viability (201T; first compound 4 µM): 1.07 | relative viability (NCI-H2087; first compound 0.04 µM): 1.1 | relative viability (NCI-H2087; first compound 0.1265 µM): 0.96 | relative viability (NCI-H2087; first compound 0.4 µM): 1.3 | relative viability (NCI-H2087; first compound 1.265 µM): 0.964 | relative viability (NCI-H2087; first compound 4 µM): 1.1 | relative viability (NCI-H647; first compound 0.04 µM): 1.11 | relative viability (NCI-H647; first compound 0.1265 µM): 1.05 | relative viability (NCI-H647; first compound 0.4 µM): 1.19 | relative viability (NCI-H647; first compound 1.265 µM): 1.1 | relative viability (NCI-H647; first compound 4 µM): 1.05 | relative viability (LXF-289; first compound 0.04 µM): 1.08 | relative viability (LXF-289; first compound 0.1265 µM): 1.01 | relative viability (LXF-289; first compound 0.4 µM): 1.06 | relative viability (LXF-289; first compound 1.265 µM): 0.964 | relative viability (LXF-289; first compound 4 µM): 0.995 | relative viability (LCLC-103H; first compound 0.04 µM): 0.987 | relative viability (LCLC-103H; first compound 0.1265 µM): 0.923 | relative viability (LCLC-103H; first compound 0.4 µM): 1.02 | relative viability (LCLC-103H; first compound 1.265 µM): 0.954 | relative viability (LCLC-103H; first compound 4 µM): 0.96 | relative viability (LCLC-97TM1; first compound 0.04 µM): 0.248 | relative viability (LCLC-97TM1; first compound 0.1265 µM): 0.2 | relative viability (LCLC-97TM1; first compound 0.4 µM): 0.262 | relative viability (LCLC-97TM1; first compound 1.265 µM): 0.178 | relative viability (LCLC-97TM1; first compound 4 µM): 0.353 | relative viability (NCI-H2023; first compound 0.04 µM): 0.611 | relative viability (NCI-H2023; first compound 0.1265 µM): 0.537 | relative viability (NCI-H2023; first compound 0.4 µM): 0.657 | relative viability (NCI-H2023; first compound 1.265 µM): 0.492 | relative viability (NCI-H2023; first compound 4 µM): 0.561 | relative viability (HCC-827; first compound 0.04 µM): 0.991 | relative viability (HCC-827; first compound 0.1265 µM): 1.01 | relative viability (HCC-827; first compound 0.4 µM): 0.828 | relative viability (HCC-827; first compound 1.265 µM): 1 | relative viability (HCC-827; first compound 4 µM): 0.786 | relative viability (NCI-H2405; first compound 0.04 µM): 0.959 | relative viability (NCI-H2405; first compound 0.1265 µM): 0.769 | relative viability (NCI-H2405; first compound 1.265 µM): 0.795 | relative viability (NCI-H2405; first compound 4 µM): 0.773 | relative viability (RERF-LC-KJ; first compound 0.04 µM): 0.824 | relative viability (RERF-LC-KJ; first compound 0.1265 µM): 0.859 | relative viability (RERF-LC-KJ; first compound 0.4 µM): 0.77 | relative viability (RERF-LC-KJ; first compound 1.265 µM): 0.74 | relative viability (RERF-LC-KJ; first compound 4 µM): 0.765 | relative viability (NCI-H3122; first compound 0.04 µM): 0.779 | relative viability (NCI-H3122; first compound 0.1265 µM): 0.742 | relative viability (NCI-H3122; first compound 0.4 µM): 0.799 | relative viability (NCI-H3122; first compound 1.265 µM): 0.93 | relative viability (NCI-H3122; first compound 4 µM): 0.906 | relative viability (NCI-H1355; first compound 0.04 µM): 0.821 | relative viability (NCI-H1355; first compound 0.1265 µM): 0.747 | relative viability (NCI-H1355; first compound 0.4 µM): 0.87 | relative viability (NCI-H1355; first compound 1.265 µM): 0.691 | relative viability (NCI-H1355; first compound 4 µM): 0.711 | relative viability (NCI-H1793; first compound 0.04 µM): 0.554 | relative viability (NCI-H1793; first compound 0.1265 µM): 0.659 | relative viability (NCI-H1793; first compound 0.4 µM): 0.569 | relative viability (NCI-H1793; first compound 1.265 µM): 0.635 | relative viability (NCI-H1793; first compound 4 µM): 0.647 | relative viability (NCI-H1437; first compound 0.04 µM): 0.975 | relative viability (NCI-H1437; first compound 0.1265 µM): 1 | relative viability (NCI-H1437; first compound 0.4 µM): 0.997 | relative viability (NCI-H1437; first compound 1.265 µM): 1.04 | relative viability (NCI-H1437; first compound 4 µM): 0.991 | relative viability (CAL-12T; first compound 0.04 µM): 1.05 | relative viability (CAL-12T; first compound 0.1265 µM): 1.26 | relative viability (CAL-12T; first compound 0.4 µM): 1.44 | relative viability (CAL-12T; first compound 1.265 µM): 0.987 | relative viability (CAL-12T; first compound 4 µM): 1.22
